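Cultured in 96-well plates, cells were exposed to test compound for 48 hours across five concentrations. The concentration for 50% growth inhibition is given as GI50. The concentration for full growth arrest is given as TGI.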
Experiments:
Test in all cases: inhibition of tumour cell growth, NCI panel, 48 h
[1] = test system: EKVX NSCLC
[2] = test system: NCI-H226 lung
[3] = test system: NCI-H23 lung
[4] = test system: NCI-H522 lung
[5] = test system: OVCAR-8 ovarian
[6] = test system: RPMI-8226 leukemia
[7] = test system: SF-295 CNS
[8] = test system: SK-MEL-5 melanoma
[9] = test system: SW-620 colon
[10] = test system: UACC-257 melanoma

O=C(Cn1c(=O)c(-c2ccccc2)nc2ccccc21)c1ccc(Cl)cc1
GI50 [1]: 94.2 µM
TGI [1]: > 100 µM
GI50 [2]: 53.5 µM
TGI [2]: > 100 µM
GI50 [3]: > 100 µM
TGI [3]: > 100 µM
GI50 [4]: > 100 µM
TGI [4]: > 100 µM
GI50 [5]: 51.9 µM
TGI [5]: > 100 µM
GI50 [6]: 57.8 µM
TGI [6]: > 100 µM
GI50 [7]: 35.7 µM
TGI [7]: > 100 µM
GI50 [8]: > 100 µM
TGI [8]: > 100 µM
GI50 [9]: > 100 µM
TGI [9]: > 100 µM
GI50 [10]: > 100 µM
TGI [10]: > 100 µM

COC(=O)C1CC(=O)CCC1c1ccccc1 (stereo not given)
TGI [1]: > 100 µM
TGI [2]: > 100 µM
TGI [3]: > 100 µM
TGI [4]: > 100 µM
TGI [5]: > 100 µM
TGI [6]: > 100 µM
TGI [7]: > 100 µM
TGI [8]: > 100 µM
TGI [9]: > 100 µM
TGI [10]: > 100 µM

N#CNC(N)=NCCO
TGI [1]: > 100 µM
TGI [2]: > 100 µM
TGI [3]: > 100 µM
TGI [4]: > 100 µM
TGI [5]: > 100 µM
TGI [6]: > 100 µM
TGI [7]: > 100 µM
TGI [8]: > 100 µM
TGI [9]: 35.9 µM
TGI [10]: > 100 µM

COc1cc2c(c(OC)c1OC)C(=O)CC(c1cccc(NC(=O)c3ccc(Br)cc3)c1)O2 (stereo not given)
GI50 [1]: 2.5 µM
TGI [1]: > 100 µM
GI50 [2]: 3 µM
TGI [2]: > 100 µM
GI50 [3]: 2.87 µM
TGI [3]: > 100 µM
GI50 [4]: 1.49 µM
TGI [4]: 6.43 µM
GI50 [5]: 2.9 µM
TGI [5]: 9.19 µM
GI50 [6]: 1.44 µM
TGI [6]: 3.93 µM
GI50 [7]: 2.6 µM
TGI [7]: > 100 µM
GI50 [8]: 1.62 µM
TGI [8]: 3.32 µM
GI50 [9]: 3.83 µM
TGI [9]: > 100 µM
GI50 [10]: 2.96 µM
TGI [10]: 9.04 µM

Cc1c(C)c2c(c(C)c1NC(=O)/C=C\C(=O)O)CCC(C)(CCCC(C)CCCC(C)CCCC(C)C)O2 (stereo not given)
GI50 [1]: 1.57 µM
TGI [1]: 3.37 µM
GI50 [2]: 1.96 µM
TGI [2]: 4.38 µM
GI50 [3]: 2.1 µM
TGI [3]: 4.52 µM
GI50 [4]: 2.23 µM
TGI [4]: 4.94 µM
GI50 [5]: 2.29 µM
TGI [5]: 7.62 µM
GI50 [6]: 2.17 µM
TGI [6]: 13.8 µM
GI50 [7]: 1.32 µM
TGI [7]: 2.77 µM
GI50 [8]: 1.73 µM
TGI [8]: 3.15 µM
GI50 [9]: 1.66 µM
TGI [9]: 3.25 µM
GI50 [10]: 1.72 µM
TGI [10]: 3.83 µM

O=C(CCN1CCOCC1)Nc1ccc(F)cc1F
TGI [1]: > 100 µM
TGI [2]: > 100 µM
TGI [3]: > 100 µM
TGI [4]: > 100 µM
TGI [5]: > 100 µM
TGI [6]: > 100 µM
TGI [7]: > 100 µM
TGI [8]: > 100 µM
TGI [9]: > 100 µM
TGI [10]: > 100 µM

COc1cc([N+](=O)[O-])c(S(=O)(=O)O)cc1NS(=O)(=O)c1ccc(C)cc1
TGI [1]: > 100 µM
TGI [2]: > 100 µM
TGI [3]: > 100 µM
TGI [4]: > 100 µM
TGI [5]: > 100 µM
TGI [6]: > 100 µM
TGI [7]: > 100 µM
TGI [8]: > 100 µM
TGI [9]: > 100 µM
TGI [10]: > 100 µM

O=C1c2ccccc2NC(c2cc(Cl)cc(Cl)c2O)N1CCc1ccccn1 (stereo not given)
TGI [1]: > 100 µM
TGI [2]: > 100 µM
TGI [3]: > 100 µM
TGI [4]: > 100 µM
TGI [5]: > 100 µM
TGI [6]: > 100 µM
TGI [7]: > 100 µM
TGI [8]: > 100 µM
TGI [9]: > 100 µM
TGI [10]: > 100 µM

Nc1ncnc2c1ncn2C1OC(CSC(F)(F)F)C(O)C1O (stereo not given)
TGI [1]: > 100 µM
TGI [2]: > 100 µM
TGI [3]: > 100 µM
TGI [4]: > 100 µM
TGI [5]: > 100 µM
TGI [6]: > 100 µM
TGI [7]: > 100 µM
TGI [8]: > 100 µM
TGI [9]: > 100 µM
TGI [10]: > 100 µM

C=C1C(=O)O[C@H]2[C@H]1CC/C(Cn1cc(CNCCc3c[nH]c4ccc(Cl)cc34)nn1)=C\CC[C@@]1(C)O[C@@H]21
GI50 [1]: 15.5 µM
TGI [1]: 37.4 µM
GI50 [2]: 31.3 µM
TGI [2]: > 100 µM
GI50 [3]: 17 µM
TGI [3]: 45.5 µM
GI50 [4]: 1.58 µM
TGI [4]: 3.12 µM
GI50 [5]: 11.8 µM
TGI [5]: 29.1 µM
GI50 [6]: 2.36 µM
TGI [6]: 5.55 µM
GI50 [7]: 30.9 µM
TGI [7]: > 100 µM
GI50 [8]: 17 µM
TGI [8]: 34.9 µM
GI50 [9]: 1.82 µM
TGI [9]: 3.88 µM
GI50 [10]: 10.7 µM
TGI [10]: 27 µM

COc1cc(N2CCN(C(C)C)CC2)ccc1Nc1nc(Nc2cccc3ncccc23)c2cc[nH]c2n1
GI50 [1]: 8.83 µM
TGI [1]: > 25 µM
GI50 [2]: 4.82 µM
TGI [2]: > 25 µM
GI50 [3]: 5.7 µM
TGI [3]: > 25 µM
GI50 [4]: 3.97 µM
TGI [4]: 9.05 µM
GI50 [5]: 5.86 µM
TGI [5]: > 22.7 µM
GI50 [6]: 5.68 µM
TGI [6]: 17.8 µM
GI50 [7]: 5.46 µM
TGI [7]: 17.9 µM
GI50 [8]: 3.41 µM
TGI [8]: 6.66 µM
GI50 [9]: 3.6 µM
TGI [9]: 14.9 µM
GI50 [10]: 3.67 µM
TGI [10]: 8.14 µM

Cc1ccc(NC(=O)CC/C(CC(=O)C(C)(C)C)=N/NC(=O)C(N)=O)cc1C
TGI [1]: > 100 µM
TGI [2]: > 100 µM
TGI [3]: > 100 µM
TGI [4]: > 100 µM
TGI [5]: > 100 µM
TGI [6]: > 100 µM
TGI [7]: > 100 µM
TGI [8]: > 100 µM
TGI [9]: > 100 µM
TGI [10]: > 100 µM

CC(C)N(C(=O)C12C3C4C5C3C1(C(=O)N(C(C)C)C(C)C)C5(C#N)C42)C(C)C (stereo not given)
TGI [1]: > 100 µM
TGI [2]: > 100 µM
TGI [3]: > 100 µM
TGI [4]: > 100 µM
TGI [5]: > 100 µM
TGI [6]: 66.2 µM
TGI [7]: > 100 µM
TGI [8]: > 100 µM
TGI [9]: > 100 µM
TGI [10]: > 100 µM

CC1(C)CCC[C@@]2(C)C1C[C@H](O)[C@@]1(C)O[C@@](C)([C@H](O)CO)CCC21 (stereo not given in full)
TGI [1]: > 100 µM
TGI [2]: > 100 µM
TGI [3]: > 100 µM
TGI [4]: 89.8 µM
TGI [5]: > 100 µM
TGI [6]: 45.2 µM
TGI [7]: > 100 µM
TGI [8]: 44 µM
TGI [9]: > 100 µM
TGI [10]: > 100 µM

NC(=O)c1cc(-c2ccncc2)cc(-c2ccccc2)c1N
GI50 [1]: > 20.2 µM
TGI [1]: > 25 µM
GI50 [2]: 12.7 µM
TGI [2]: > 25 µM
GI50 [3]: > 25 µM
TGI [3]: > 25 µM
GI50 [4]: 7.68 µM
TGI [4]: > 15.8 µM
GI50 [5]: 15.1 µM
TGI [5]: > 25 µM
GI50 [6]: 11.6 µM
TGI [6]: > 25 µM
GI50 [7]: > 25 µM
TGI [7]: > 25 µM
GI50 [8]: 14.7 µM
TGI [8]: > 25 µM
GI50 [9]: > 25 µM
TGI [9]: > 25 µM
GI50 [10]: > 25 µM
TGI [10]: > 25 µM

CC12CCC([C@H](N3CCOCC3)/C1=N\OCCN1CCCC1)C2(C)C (stereo not given in full)
TGI [1]: > 100 µM
TGI [2]: > 100 µM
TGI [3]: > 100 µM
TGI [4]: > 100 µM
TGI [5]: > 100 µM
TGI [6]: > 100 µM
TGI [7]: > 100 µM
TGI [8]: > 100 µM
TGI [9]: > 100 µM
TGI [10]: > 100 µM
